# Measured values published in US20250129044A1 (priority 2021, published 2025).
# Target: sodium channel isoforms (Homo sapiens, UniProt P35498)
# Assay type: cell-based
# Settings: area under the sodium current trace, step from −120 mV to 0 mV, HEK cells
# Experimental: The sodium channel isoforms of interest are stably expressed in Human Embryonic Kidney Cells and the currents that flow through those channels in response to a depolarizing voltage clamp step from −120 mV to 0 mV are measured in the presence of increasing concentrations of the chemical agents. The area under the sodium current trace which correlates to the magnitude of sodium flux through the cell membrane is used to quantify the effects on gating of the channels. Other parameters that are measured in the assay include the peak current, time constant of open state inactivation and the voltage dependence of steady state inactivation properties. The concentration responses are used to determine potency of each chemical agents effects on modulating the sodium channel isoform gating. Such techniques are known to those skilled in the art, and may be developed, using current technologies, into low or medium throughput assays for evaluating compounds for their ability to modulate sodium channel behaviour.
compound,measurement,value
"CC(C)Oc1ncc(C(=O)Nc2c(-c3ccccc3F)ccnc2C2CCC(F)(F)CC2)cn1 [Example 4, N-[2-(4,4-difluorocyclohexyl)-4-(2-fluorophenyl)-3-pyridyl]-2-isopropoxy-pyrimidine-5-carboxamide]",Empirical Emax,++++ (++++ indicates a value greater than 7.5)
"CC(C)c1ncc(C(=O)Nc2c(-c3ccccc3)ccnc2C2CCCN2)cn1 (stereo not shown) [Example 40, 2-isopropyl-N-(4-phenyl-2-(pyrrolidin-2-yl)pyridin-3-yl)pyrimidine-5-carboxamide]",Empirical Emax,+ (+ indicates a value less than 2.0 μM)
"CC(C)c1ncc(C(=O)Nc2c(-c3ccccc3F)ccnc2C2CC(F)(F)CCN2C(=O)OC(C)(C)C)cn1 (stereo not shown) [Example 20, tert-butyl 4,4-difluoro-2-[4-(2-fluorophenyl)-3-[(2-isopropylpyrimidine-5-carbonyl)amino]-2-pyridyl]piperidine-1-carboxylate]",Empirical Emax,+ (+ indicates a value less than 2.0 μM)
"c1ccc(-c2ccnc(C3CCOCC3)c2-c2nc3c([nH]2)COCC3)cc1 [Example 45, 2-(4-phenyl-2-(tetrahydro-2H-pyran-4-yl)pyridin-3-yl)-3,4,6,7-tetrahydropyrano[3,4-d]imidazole]",Empirical Emax,+ (+ indicates a value less than 2.0 μM)
"CC(C)c1ncc(C(=O)Nc2c(-c3cc(F)ccc3F)ccnc2C2CCC(F)(F)CC2)cn1 [Example 6, N-[2-(4,4-difluorocyclohexyl)-4-(2,5-difluorophenyl)-3-pyridyl]-2-isopropyl-pyrimidine-5-carboxamide]",Empirical Emax,+++ (+++ indicates a value from 5.0 up to 7.5 μM)
"CC(C)c1ncc(C(=O)Nc2c(-c3ccccc3)ccnc2C2CCOCC2)cn1 [Example 10, 2-isopropyl-N-(4-phenyl-2-(tetrahydro-2H-pyran-4-yl)pyridin-3-yl)pyrimidine-5-carboxamide]",Empirical Emax,++ (++ indicates a value from 2.0 up to 5.0 μM)
"COC1CCN(C(=O)Nc2c(-c3ccccc3F)ccnc2C2CCC(F)(F)CC2)CC1 [Example 5, N-[2-(4,4-difluorocyclohexyl)-4-(2-fluorophenyl)-3-pyridyl]-4-methoxy-piperidine-1-carboxamide]",Empirical Emax,+++ (+++ indicates a value from 5.0 up to 7.5 μM)
"CC(C)c1ncc(C(=O)Nc2c(-c3ccccc3)ccnc2C2CCCO2)cn1 (racemic) [Example 11, (±)-2-isopropyl-N-(4-phenyl-2-(tetrahydrofuran-2-yl)pyridin-3-yl)pyrimidine-5-carboxamide]",Empirical Emax,+ (+ indicates a value less than 2.0 μM)
"CC(C)c1ncc(C(=O)Nc2c(-c3ccccc3F)ccnc2C2CCCC(F)(F)CC2)cn1 (racemic) [Example 37, (±)-N-(2-(4,4-difluorocycloheptyl)-4-(2-fluorophenyl)pyridin-3-yl)-2-isopropylpyrimidine-5-carboxamide]",Empirical Emax,+++ (+++ indicates a value from 5.0 up to 7.5 μM)
O=C(Nc1ccc(Cl)nc1)c1c(-c2ccccc2F)ccnc1C1=CCOCC1 [Example 51],Empirical Emax,+ (+ indicates a value less than 2.0 μM)
"CC(C)c1ncc(C(=O)Nc2c(-c3ccccc3F)ccnc2C2CC3(COC3)C2)cn1 [Example 36, N-(4-(2-fluorophenyl)-2-(2-oxaspiro[3.3]heptan-6-yl)pyridin-3-yl)-2-isopropylpyrimidine-5-carboxamide]",Empirical Emax,+++ (+++ indicates a value from 5.0 up to 7.5 μM)
"CC(C)c1ncc(C(=O)Nc2c(-c3ccccc3F)ccnc2C2CCCCO2)cn1 (stereo not shown) [Example 18, N-[4-(2-fluorophenyl)-2-tetrahydropyran-2-yl-3-pyridyl]-2-isopropyl-pyrimidine-5-carboxamide]",Empirical Emax,+++ (+++ indicates a value from 5.0 up to 7.5 μM)
"O=C(Nc1c(-c2cc(F)ccc2F)ccnc1C1CCC(F)(F)CC1)c1cnc(N2C3CCC2COC3)nc1 [Example 159, 2-(3-oxa-8-azabicyclo[3.2.1]octan-8-yl)-N-(2-(4,4-difluorocyclohexyl)-4-(2,5-difluorophenyl)pyridin-3-yl)pyrimidine-5-carboxamide]",EC50,< 1000 nM
"O=C(Nc1c(-c2ccccc2F)ccnc1C1CCC(F)(F)CC1)c1cnn(C2CCC2)c1 [Example 1, 1-cyclobutyl-N-[2-(4,4-difluorocyclohexyl)-4-(2-fluorophenyl)-3-pyridyl]pyrazole-4-carboxamide]",Empirical Emax,++++ (++++ indicates a value greater than 7.5)
"CC(C)c1ncc(C(=O)Nc2c(-c3ccccc3F)ccnc2C2CCOCC2)cn1 [Example 14, N-(4-(2-fluorophenyl)-2-(tetrahydro-2H-pyran-4-yl)pyridin-3-yl)-2-isopropylpyrimidine-5-carboxamide]",Empirical Emax,+++ (+++ indicates a value from 5.0 up to 7.5 μM)
"CC(C)c1ncc(C(=O)Nc2c(-c3ccccc3F)ccnc2C2C[C@@H]3[C@H](C2)C3(F)F)cn1 (stereo partly drawn) [Example 23, N-[2-[(1R,5S)-6,6-difluoro-3-bicyclo[3.1.0]hexanyl]-4-(2-fluorophenyl)-3-pyridyl]-2-isopropyl-pyrimidine-5-carboxamide]",Empirical Emax,++++ (++++ indicates a value greater than 7.5)
"O=C(Nc1c(-c2cc(F)ccc2F)ccnc1C1CCC(F)(F)CC1)c1cnc(N2C3CCCC2CC3)nc1 [Example 165, 2-(8-azabicyclo[3.2.1]octan-8-yl)-N-(2-(4,4-difluorocyclohexyl)-4-(2,5-difluorophenyl)pyridin-3-yl)pyrimidine-5-carboxamide]",EC50,< 1000 nM
"CC(C)c1ncc(C(=O)Nc2c(-c3ccccc3)ccnc2C23CCOCC2C3)cn1 (racemic) [Example 12, (±)—N-(2-(3-oxabicyclo[4.1.0]heptan-6-yl)-4-phenylpyridin-3-yl)-2-isopropylpyrimidine-5-carboxamide]",Empirical Emax,+ (+ indicates a value less than 2.0 μM)
CC(C)c1ccc(NC(=O)c2c(-c3ccccc3F)ccnc2C2=CCOCC2)cn1 [Example 52],Empirical Emax,+ (+ indicates a value less than 2.0 μM)
"CC(C)c1ncc(C(=O)Nc2c(-c3ccccc3F)ccnc2C2CCCCC2)cn1 [Example 17, N-[2-cyclohexyl-4-(2-fluorophenyl)-3-pyridyl]-2-isopropyl-pyrimidine-5-carboxamide]",Empirical Emax,+++ (+++ indicates a value from 5.0 up to 7.5 μM)
"O=C(Nc1c(-c2cc(F)ccc2F)ccnc1C1CCC(F)(F)CC1)c1cnc(N2CC3CC(C2)O3)nc1 [Example 167, 2-(6-oxa-3-azabicyclo[3.1.1]heptan-3-yl)-N-(2-(4,4-difluorocyclohexyl)-4-(2,5-difluorophenyl)pyridin-3-yl)pyrimidine-5-carboxamide]",EC50,< 1000 nM
"CC(C)c1ncc(C(=O)Nc2c(-c3ccccc3)ccnc2C2CCCN2C(=O)OC(C)(C)C)cn1 (racemic) [Example 13, (±)-tert-butyl 2-(3-(2-isopropylpyrimidine-5-carboxamido)-4-phenylpyridin-2-yl)pyrrolidine-1-carboxylate]",Empirical Emax,+ (+ indicates a value less than 2.0 μM)
"CC(C)c1ncc(C(=O)Nc2c(-c3ccccc3F)ccnc2C2CC(F)(F)CN2C(=O)OC(C)(C)C)cn1 (stereo not shown) [Example 31, tert-butyl 4,4-difluoro-2-[4-(2-fluorophenyl)-3-[(2-isopropylpyrimidine-5-carbonyl)amino]-2-pyridyl]pyrrolidine-1-carboxylate]",Empirical Emax,+ (+ indicates a value less than 2.0 μM)
"CC(C)Oc1ncc(C(=O)Nc2c(-c3cc(F)ccc3F)ccnc2C2CCC(F)(F)CC2)cn1 [Example 7, N-[2-(4,4-difluorocyclohexyl)-4-(2,5-difluorophenyl)-3-pyridyl]-2-isopropoxy-pyrimidine-5-carboxamide]",Empirical Emax,++++ (++++ indicates a value greater than 7.5)
"O=C(Nc1c(-c2cc(F)ccc2F)ccnc1C1CCC(F)(F)CC1)c1cnc(N2C3CCC2CC3)nc1 [Example 177, 2-(7-azabicyclo[2.2.1]heptan-7-yl)-N-(2-(4,4-difluorocyclohexyl)-4-(2,5-difluorophenyl)pyridin-3-yl)pyrimidine-5-carboxamide]",EC50,< 1000 nM
"CC(C)c1ncc(C(=O)Nc2c(-c3cc(F)ccc3F)ccnc2C2CCC(F)(F)CO2)cn1 (stereo not shown) [Example 9, N-[4-(2,5-difluorophenyl)-2-(5,5-difluorotetrahydropyran-2-yl)-3-pyridyl]-2-isopropyl-pyrimidine-5-carboxamide]",Empirical Emax,+++ (+++ indicates a value from 5.0 up to 7.5 μM)
CO[C@H]1CC[C@H](c2nccc(-c3ccccc3F)c2NC(=O)c2cnc(C(C)C)nc2)CC1 [Example 39],Empirical Emax,+ (+ indicates a value less than 2.0 μM)
"CC(C)c1ncc(C(=O)Nc2c(-c3ccccc3F)ccnc2C2CC3(C2)CC(F)(F)C3)cn1 [Example 19, N-[2-(2,2-difluorospiro[3.3]heptan-6-yl)-4-(2-fluorophenyl)-3-pyridyl]-2-isopropyl-pyrimidine-5-carboxamide]",Empirical Emax,++ (++ indicates a value from 2.0 up to 5.0 μM)
"CC(C)c1ncc(C(=O)Nc2c(-c3ccccc3F)ccnc2[C@H]2CC[C@@H](C(F)(F)F)CC2)cn1 [Example 29, N-[4-(2-fluorophenyl)-2-[4-(trifluoromethyl)cyclohexyl]-3-pyridyl]-2-isopropyl-pyrimidine-5-carboxamide]",Empirical Emax,+ (+ indicates a value less than 2.0 μM)
"CC(C)c1ncc(C(=O)Nc2c(-c3ccccc3F)ccnc2C2CCCC(F)(F)C2)cn1 (stereo not shown) [Example 26, N-[2-(3,3-difluorocyclohexyl)-4-(2-fluorophenyl)-3-pyridyl]-2-isopropyl-pyrimidine-5-carboxamide]",Empirical Emax,+++ (+++ indicates a value from 5.0 up to 7.5 μM)
"CC(C)c1ncc(C(=O)Nc2c(-c3ccccn3)ccnc2C2CCC(F)(F)CC2)cn1 [Example 55, N-(2′-(4,4-difluorocyclohexyl)-[2,4′-bipyridin]-3′-yl)-2-isopropylpyrimidine-5-carboxamide]",Empirical Emax,+++ (+++ indicates a value from 5.0 up to 7.5 μM)
